Experimental findings from patent US20210115018A1, “PIPERIDINE COMPOUNDS AS COVALENT MENIN INHIBITORS” (THE REGENTS OF THE UNIVERSITY OF MICHIGAN, priority 2018, published 2021) are described below.

For one assay, the system named is MV4-11. Description: 7-day proliferation assay (WST-8), cell growth inhibition. The settings on record: MV4-11 cells, 7 days. It counts as cell-based. As to the method: (§1) The effect of representative Compounds of the Disclosure on cell viability was determined in a 7-day proliferation assay. Cells were maintained in the appropriate culture medium with 10% FBS at 37° C. and an atmosphere of 5% CO2.
(§2) Cells were seeded in 96-well flat bottom (Corning COSTAR, Corning, NY, cat#3595) at a density of 2,000-3,000 cells/well in 100 μl of culture medium. Compounds were serially diluted in the appropriate medium, and […] the diluted compounds were added to the appropriate wells of the cell plate. After the addition of compounds, the cells were incubated at 37° C. in an atmosphere of 5% CO2 for 7 days. Cell viability was determined using the WST (2-(2-methoxy-4-nitrophenyl)-3-(4-nitrophenyl)-5-(2,4-disulfophenyl)-2H-tetrazolium, monosodium salt) Cell Counting-8 Kit (Dojindo Molecular Technologies, Inc., Rockville, Md.) according to the manufacturers' instructions.
(§3) WST-8 reagent was added to each well at a final concentration of 10% (v/v), and then the plates were incubated at 37° C. for 1-2 hours for color development. The absorbance was measured at 450 nm using a SPECTRAmax PLUS plate reader (Molecular Devices, Sunnyvale, Calif.). The readings were normalized to the DMSO-treated cells and the half maximal inhibitory concentration (IC50) was calculated by nonlinear regression (four parameters sigmoid fitted with variable slope, least squares fit, and no constraint) analysis using the GraphPad Prism 5 software (GraphPad Software, La Jolla, Calif.).
(Formazan colour is commonly taken as a measure of viable cells.)

In another assay the target is T1, menin protein (Homo sapiens, UniProt O00255).
T1 sequence (O00255 1-610): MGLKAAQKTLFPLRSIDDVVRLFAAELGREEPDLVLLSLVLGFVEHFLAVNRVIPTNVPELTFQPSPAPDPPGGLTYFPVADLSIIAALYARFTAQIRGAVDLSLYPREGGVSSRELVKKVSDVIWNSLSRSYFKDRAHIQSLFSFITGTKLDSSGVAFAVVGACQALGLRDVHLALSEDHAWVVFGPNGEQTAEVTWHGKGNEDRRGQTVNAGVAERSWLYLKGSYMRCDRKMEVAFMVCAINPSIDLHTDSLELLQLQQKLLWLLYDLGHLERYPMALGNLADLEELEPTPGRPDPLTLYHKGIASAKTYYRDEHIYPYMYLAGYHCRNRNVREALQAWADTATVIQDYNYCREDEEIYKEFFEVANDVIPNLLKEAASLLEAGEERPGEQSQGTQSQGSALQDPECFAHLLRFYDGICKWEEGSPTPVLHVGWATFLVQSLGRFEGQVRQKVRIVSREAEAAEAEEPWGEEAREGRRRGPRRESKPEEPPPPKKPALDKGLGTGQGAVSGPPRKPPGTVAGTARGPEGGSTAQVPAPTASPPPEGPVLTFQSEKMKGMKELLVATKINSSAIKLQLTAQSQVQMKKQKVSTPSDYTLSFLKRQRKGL
Put plainly: Fluorescence polarization (FP) competitive binding assay, menin binding affinity. The note with it: FP competition with FAM-MM2 probe 2 nM, menin 4 nM, 30 minutes room temperature. The procedure: A fluorescence polarization (FP) competitive binding assay was used to determine the binding affinities of representative menin inhibitors. A FAM labeled fluorescent probe was designed and synthesized based on a MLL1 peptide (FAM-MM2). Equilibrium dissociation constant (Kd) value of FAM-MM2 to menin protein was determined from protein saturation experiments by monitoring the total fluorescence polarization of mixtures composed with the fluorescent probe at a fixed concentration and the protein with increasing concentrations up to full saturation. Serial dilutions of the protein were mixed with FAM-MM2 to a final volume of 200 μl in the assay buffer (PBS with 0.02% Bovine γ-Globulin and 4% DMSO. 0.01% Triton X-100 was added right before assays). Final FAM-MM2 concentration was 2 nM. Plates were incubated at room temperature for 30 minutes with gentle shaking to assure equilibrium. FP values in millipolarization units (mP) were measured using the Infinite M-1000 plate reader (Tecan U.S., Research Triangle Park, N.C.) in Microfluor 1 96-well, black, v-bottom plates (Thermo Scientific, Waltham, Mass.) at an excitation wavelength of 485 nm and an emission wavelength of 530 nm.
The IC50 of representative Compounds of the Disclosure, see Table 3, were determined in a competitive binding experiment. Mixtures of 5 μl of the tested compounds in DMSO and 195 μl of preincubated protein/probe complex solution in the assay buffer were added into assay plates which were incubated at room temperature for 30 minutes with gentle shaking. Final concentration of the menin protein was 4 nM, and final probe concentration is 2 nM. Negative controls containing protein/probe complex only (equivalent to 0% inhibition), and positive controls containing only free probes (equivalent to 100% inhibition), were included in each assay plate. FP values were measured as described above. IC50 values were determined by nonlinear regression fitting of the competition curves.

The subject of a further assay is MOLM13. Description: 7-day proliferation assay (WST-8), cell growth inhibition. It counts as cell-based. The settings on record: Homo sapiens, MOLM-13, 168 h, MOLM13 cells, 7 days. The procedure:
as §1, §2, §3

Usually IC50 stands for the midpoint of a concentration-inhibition curve. As for `C=C(CN1CCOCC1)C(=O)N1CC(S(=O)(=O)c2ccc(N3CC(CN4CCC([C@@](CN5CCC5)(c5cccc(F)c5)[C@H]5CCC[C@@H]5NC(=O)OC)CC4)C3)cc2)C1` [Cpd. No. 9, methyl ((1S,2R)-2-((S)-2-(azetidin-1-yl)-1-(3-fluorophenyl)-1-(1-((1-(4-((1-(2-(morpholinomethyl)acryloyl)azetidin-3-yl)sulfonyl)phenyl)azetidin-3-yl)methyl)piperidin-4-yl)ethyl)cyclopentyl)carbamate], the IC50 with MV4-11 (Homo sapiens, MV4-11, 168 h) is under 10 nM; at menin protein, 2 nM.

Turning to `C=C(CN(CC)CC)C(=O)N1CC(S(=O)(=O)c2ccc(N3CC(CN4CCC([C@@](CN5CCC5)(c5cccc(F)c5)[C@H]5CCC[C@@H]5NC(=O)OC)CC4)C3)cc2)C1` [Cpd. No. 21, methyl ((1S,2R)-2-((S)-2-(azetidin-1-yl)-1-(1-((1-(4-((1-(2-((diethylamino)methyl)acryloyl)azetidin-3-yl)sulfonyl)phenyl)azetidin-3-yl)methyl)piperidin-4-yl)-1-(3-fluorophenyl)ethyl)cyclopentyl)carbamate], the IC50 is under 10 nM with MV4-11 (Homo sapiens, MV4-11, 168 h) and 2 nM on menin protein.

`C=C(CN1CCC1)C(=O)N1CC(S(=O)(=O)c2ccc(N3CC(CN4CCC([C@@](CN5CCC5)(c5cccc(F)c5)[C@H]5CCC[C@@H]5NC(=O)OC)CC4)C3)cc2)C1` [Cpd. No. 22, methyl ((1S,2R)-2-((S)-2-(azetidin-1-yl)-1-(1-((1-(4-((1-(2-(azetidin-1-ylmethyl)acryloyl)azetidin-3-yl)sulfonyl)phenyl)azetidin-3-yl)methyl)piperidin-4-yl)-1-(3-fluorophenyl)ethyl)cyclopentyl)carbamate]: the IC50 was under 10 nM with MV4-11 (Homo sapiens, MV4-11, 168 h) and 2 nM on menin protein.

As to `COC(=O)N[C@H]1CCC[C@@H]1[C@](CN1CCC1)(c1cccc(F)c1)C1CCN(CC2CN(c3ccc(S(=O)(=O)C4CN(C(=O)/C=C/CN5CCOCC5)C4)cc3)C2)CC1` [Cpd. No. 25, methyl ((1S,2R)-2-((S)-2-(azetidin-1-yl)-1-(3-fluorophenyl)-1-(1-((1-(4-((1-((E)-4-morpholinobut-2-enoyl)azetidin-3-yl)sulfonyl)phenyl)azetidin-3-yl)methyl)piperidin-4-yl)ethyl)cyclopentyl)carbamate], the IC50 with MV4-11 (Homo sapiens, MV4-11, 168 h) was under 10 nM; on menin protein, 7 nM.

Consider `COC(=O)N[C@H]1CCC[C@@H]1[C@](CN1CCC1)(c1cccc(F)c1)C1CCN(CC2CN(c3ccc(S(=O)(=O)C4CN(C(=O)/C=C/CN5CCC5)C4)cc3)C2)CC1` [Cpd. No. 173, Methyl ((1S,2R)-2-((S)-2-(azetidin-1-yl)-1-(1-((1-(4-((1-((E)-4-(azetidin-1-yl)but-2-enoyl)azetidin-3-yl)sulfonyl)phenyl)azetidin-3-yl)methyl)piperidin-4-yl)-1-(3-fluorophenyl)ethyl)cyclopentyl)carbamate], for which the IC50 is under 10 nM in the assay with MV4-11 (Homo sapiens, MV4-11, 168 h) and 2 nM at menin protein.

Turning to `COC(=O)N[C@H]1CCC[C@@H]1[C@](CN1CCC1)(c1cccc(F)c1)C1CCN(CC2CN(c3ccc(C(F)(F)C4CN(C(=O)/C=C/CN5CCCCC5)C4)cc3)C2)CC1` [compound 71], the IC50 in the assay with MV4-11 (Homo sapiens, MV4-11, 168 h) is under 50 nM; on menin protein it was 2 nM.

Turning to `C=CC(=O)Nc1cc(F)cc(S(=O)(=O)c2ccc(N3CC(CN4CCC([C@@](CN5CCC5)(c5cccc(F)c5)[C@H]5CCC[C@@H]5NC(=O)OC)CC4)C3)cc2)c1` [compound 72], the IC50 was under 10 nM with MV4-11 (Homo sapiens, MV4-11, 168 h) and under 50 nM with MOLM13.

Take `C=CC(=O)Nc1cc(N(C)CCN(C)C)cc(S(=O)(=O)c2ccc(N3CC(CN4CCC([C@@](CN5CCC5)(c5cccc(F)c5)[C@H]5CCC[C@@H]5NC(=O)OC)CC4)C3)cc2)c1` [compound 75]: the concentration for half-maximal inhibition (IC50) in the assay on MV4-11 (Homo sapiens, MV4-11, 168 h) was under 10 nM; with MOLM13, under 50 nM.

As to `C=CC(=O)Nc1cccc(S(=O)(=O)c2ccc(N3CC(F)(CN4CCC([C@@](CN5CCC5)(c5cccc(F)c5)[C@H]5CCC[C@@H]5NC(=O)OC)CC4)C3)cc2)c1` [compound 76], the 50% inhibitory concentration (IC50) in the assay with MV4-11 (Homo sapiens, MV4-11, 168 h) is under 10 nM; in the assay on MOLM13, under 50 nM.

`C=CC(=O)Nc1cc(S(=O)(=O)c2ccc(N3CC(F)(CN4CCC([C@@](CN5CCC5)(c5cccc(F)c5)[C@H]5CCC[C@@H]5NC(=O)OC)CC4)C3)cc2)ccn1` [compound 82]: the half-inhibitory concentration (IC50) in the assay on MV4-11 (Homo sapiens, MV4-11, 168 h) is under 10 nM; in the assay with MOLM13, under 100 nM.

As for `C=CC(=O)Nc1cncc(S(=O)(=O)c2ccc(N3CC(F)(CN4CCC([C@@](CN5CCC5)(c5cccc(F)c5)[C@H]5CCC[C@@H]5NC(=O)OC)CC4)C3)cc2)c1` [compound 83], the IC50 in the assay on MV4-11 (Homo sapiens, MV4-11, 168 h) is under 10 nM; in the assay on MOLM13, under 100 nM.

`C=CC(=O)Nc1cccc(S(=O)(=O)c2ccc(N3CC(F)(CN4CCC([C@@](CN5CCC5)(c5cccc(F)c5)[C@H]5CCC[C@@H]5NC(=O)OC)CC4)C3)cc2)n1` [compound 85]: the IC50 is under 500 nM with MV4-11 (Homo sapiens, MV4-11, 168 h) and under 500 nM in the assay on MOLM13.

On to `C=CC(=O)Nc1cncc(S(=O)(=O)c2ccc(N3CC(F)(CN4CCC([C@@](CN5CCC5)(c5cccc(F)c5)[C@H]5CCC[C@@H]5NC(=O)OC)CC4)C3)c(F)c2)c1` [compound 86], for which the IC50 is under 50 nM with MV4-11 and 2 nM at menin protein.

With `C=CC(=O)Nc1cc(F)cc(S(=O)(=O)c2ccc(N3CC(F)(CN4CCC([C@@](CN5CCC5)(c5cccc(F)c5)[C@H]5CCC[C@@H]5NC(=O)OC)CC4)C3)cc2)c1` [compound 88], the IC50 in the assay with MV4-11 (Homo sapiens, MV4-11, 168 h) was under 50 nM; with MOLM13 it was under 50 nM.

Consider `C=CC(=O)Nc1cc(OC)cc(S(=O)(=O)c2ccc(N3CC(F)(CN4CCC([C@@](CN5CCC5)(c5cccc(F)c5)[C@H]5CCC[C@@H]5NC(=O)OC)CC4)C3)c(F)c2)c1` [compound 91], for which the IC50 with MV4-11 (Homo sapiens, MV4-11, 168 h) was under 50 nM; in the assay with MOLM13, under 50 nM.

On to `C=CC(=O)Nc1cc(S(=O)(=O)c2ccc(N3CC(F)(CN4CCC([C@@](CN5CCC5)(c5cccc(F)c5)[C@H]5CCC[C@@H]5NC(=O)OC)CC4)C3)c(F)c2)ccc1OC` [compound 92], for which the IC50 was under 10 nM with MV4-11 (Homo sapiens, MV4-11, 168 h) and under 50 nM with MOLM13.

As to `COC(=O)N[C@H]1CCC[C@@H]1[C@](CN1CCC1)(c1cccc(F)c1)C1CCN(CC2CN(c3ccc(S(=O)(=O)C4CN(C(=O)/C=C/CN5CCC(F)CC5)C4)cc3)C2)CC1` [compound 100], the IC50 was under 10 nM with MV4-11 (Homo sapiens, MV4-11, 168 h) and 4 nM at menin protein.

Regarding `COC(=O)N[C@H]1CCC[C@@H]1[C@](CN1CCC1)(c1cccc(F)c1)C1CCN(CC2CN(c3ccc(S(=O)(=O)C4CN(C(=O)/C=C/CN5CCC(F)(F)CC5)C4)cc3)C2)CC1` [compound 103], the half-maximal inhibitory concentration (IC50) was under 10 nM with MV4-11 (Homo sapiens, MV4-11, 168 h) and 2 nM on menin protein.

In the case of `CC#CC(=O)N1CC[C@@H](S(=O)(=O)c2ccc(N3CC(O)(CN4CCC([C@@](CNC(C)=O)(c5cccc(F)c5)[C@H]5CCC[C@@H]5NC(=O)OC)CC4)C3)c(F)c2)C1` [compound 206], the IC50 is under 50 nM in the assay with MV4-11 (Homo sapiens, MV4-11, 168 h) and 2 nM at menin protein.
